Key:
[1] = target: T1, Alpha-2B adrenergic receptor (Homo sapiens, UniProt P18089); experiment: Inhibition of alpha-adrenoceptor 2B (unknown origin)
T1 sequence (P18089 whole entry): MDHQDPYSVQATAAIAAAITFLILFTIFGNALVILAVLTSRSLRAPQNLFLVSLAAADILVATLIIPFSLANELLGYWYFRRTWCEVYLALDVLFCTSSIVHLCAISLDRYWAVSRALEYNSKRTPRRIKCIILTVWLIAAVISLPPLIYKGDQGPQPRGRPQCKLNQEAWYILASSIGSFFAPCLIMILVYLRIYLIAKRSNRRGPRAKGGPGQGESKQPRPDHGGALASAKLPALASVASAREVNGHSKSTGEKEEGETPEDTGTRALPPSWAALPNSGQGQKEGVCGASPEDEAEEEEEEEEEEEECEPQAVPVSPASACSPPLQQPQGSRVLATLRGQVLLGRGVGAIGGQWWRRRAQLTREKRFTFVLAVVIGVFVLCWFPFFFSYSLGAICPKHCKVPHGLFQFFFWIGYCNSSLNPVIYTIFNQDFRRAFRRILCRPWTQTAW

Beta-secretase 2 = target: T2, Beta-secretase 2 (Homo sapiens, UniProt Q9Y5Z0); experiment: Inhibition of BACE2 (unknown origin)
T2 sequence (Q9Y5Z0 whole entry): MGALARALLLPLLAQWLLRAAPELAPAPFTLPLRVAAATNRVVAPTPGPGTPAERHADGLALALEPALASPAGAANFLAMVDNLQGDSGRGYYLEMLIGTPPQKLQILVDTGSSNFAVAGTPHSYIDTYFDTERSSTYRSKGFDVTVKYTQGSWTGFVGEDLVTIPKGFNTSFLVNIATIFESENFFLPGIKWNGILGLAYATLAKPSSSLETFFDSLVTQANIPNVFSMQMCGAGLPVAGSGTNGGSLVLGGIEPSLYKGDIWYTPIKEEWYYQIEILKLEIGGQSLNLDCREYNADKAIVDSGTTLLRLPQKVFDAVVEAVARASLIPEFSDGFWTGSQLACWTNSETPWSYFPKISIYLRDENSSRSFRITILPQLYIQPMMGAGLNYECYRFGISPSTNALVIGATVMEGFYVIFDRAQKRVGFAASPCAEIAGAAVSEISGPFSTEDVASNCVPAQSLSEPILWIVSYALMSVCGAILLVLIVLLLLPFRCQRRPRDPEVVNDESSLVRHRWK

Gastricsin = target: T3, Gastricsin (Homo sapiens, UniProt P20142); experiment: Inhibition of pepsin C (unknown origin)
T3 sequence (P20142 whole entry): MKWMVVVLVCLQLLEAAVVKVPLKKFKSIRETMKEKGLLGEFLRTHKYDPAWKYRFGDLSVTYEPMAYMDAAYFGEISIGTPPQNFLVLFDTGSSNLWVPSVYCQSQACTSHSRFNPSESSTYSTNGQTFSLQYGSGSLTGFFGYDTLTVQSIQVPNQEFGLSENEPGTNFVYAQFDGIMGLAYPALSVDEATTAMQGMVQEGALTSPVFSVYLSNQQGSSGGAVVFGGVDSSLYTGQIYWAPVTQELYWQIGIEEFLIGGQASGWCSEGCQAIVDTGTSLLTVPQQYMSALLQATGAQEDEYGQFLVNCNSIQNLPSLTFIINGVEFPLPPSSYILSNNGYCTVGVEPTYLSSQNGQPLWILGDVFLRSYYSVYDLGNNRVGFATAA

[2] = Solubility in aqueous buffer at pH 6.8; type: physicochemical
Cytochrome P450 2D6 = Cytochrome P450 2D6 (Homo sapiens, UniProt P10635); experiment: Inhibition of CYP2D6 (unknown origin); type: ADME
Rattus norvegicus [3] = experiment: Oral bioavailability in cannulated fed Sprague-Dawley rat at 6 mg/kg; type: ADME, organism-based; details: in vivo
Rattus norvegicus [4] = experiment: AUC (0 to 24 hrs) in cannulated fed Sprague-Dawley rat at 6 mg/kg, po; type: ADME, organism-based, Plasma; parameters: time < 24 hr, dose 6 mg/kg, route oral; details: in vivo

Cytochrome P450 2D6, sequence (P10635 whole entry): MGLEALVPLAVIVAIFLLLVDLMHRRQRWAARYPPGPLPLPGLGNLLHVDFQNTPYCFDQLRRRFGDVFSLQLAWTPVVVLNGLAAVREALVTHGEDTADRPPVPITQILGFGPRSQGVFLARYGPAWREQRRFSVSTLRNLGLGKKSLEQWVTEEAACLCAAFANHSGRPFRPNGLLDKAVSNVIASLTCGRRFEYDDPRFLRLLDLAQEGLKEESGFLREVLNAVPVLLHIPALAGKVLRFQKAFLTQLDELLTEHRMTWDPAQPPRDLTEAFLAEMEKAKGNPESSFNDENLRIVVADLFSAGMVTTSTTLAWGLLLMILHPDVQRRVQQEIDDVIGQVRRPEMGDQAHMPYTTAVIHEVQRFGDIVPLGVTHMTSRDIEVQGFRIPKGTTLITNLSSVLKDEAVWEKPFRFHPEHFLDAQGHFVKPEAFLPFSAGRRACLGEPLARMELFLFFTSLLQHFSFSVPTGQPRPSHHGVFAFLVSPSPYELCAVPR

- IC50 [1]: 1000 nM
- IC50 (Beta-secretase 2): > 30 µM
- IC50 (Gastricsin): > 30 µM
- solubility [2]: > 1000 µM
- IC50 (Cytochrome P450 2D6): > 20 µM
- F (Rattus norvegicus [3]): 57%
- AUC (Rattus norvegicus [4]): 468 nM·h
Structure (SMILES): COCCCOc1cc(C(=O)N(C[C@@H]2CNC[C@H]2OC(=O)NCc2ccccc2)C(C)C)ccc1OC

Source: ChEMBL document CHEMBL3400053, “trans-3,4-Disubstituted pyrrolidines as inhibitors of the human aspartyl protease renin. Part II: prime site exploration using an oxygen linker” (Bioorg Med Chem Lett, 2015)
